Test results from PubChem BioAssay (NCI).
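Where inhibition never reached the appropriate level, the endpoint shown equals the highest concentration tested. Otherwise, values were interpolated linearly from a five-concentration, 48-hour dose response in 96-well plates. Abbreviation: GI50, concentration required for 50% inhibition of growth. TGI marks complete inhibition of growth.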

Columns and labels:
Test in all cases: inhibition of tumour cell growth, NCI panel, 48 h
UACC-257 melanoma = system: UACC-257 melanoma
HS 578T breast = system: HS 578T breast
UO-31 renal = system: UO-31 renal
TK-10 renal = system: TK-10 renal
NCI-H23 lung = system: NCI-H23 lung
HCC-2998 colon = system: HCC-2998 colon
RXF 393 renal = system: RXF 393 renal
A549 NSCLC = system: A549 NSCLC
COLO 205 colon = system: COLO 205 colon
OVCAR-5 ovarian = system: OVCAR-5 ovarian

SMILES	GI50 (UACC-257 melanoma)	TGI (UACC-257 melanoma)	GI50 (HS 578T breast)	TGI (HS 578T breast)	GI50 (UO-31 renal)	TGI (UO-31 renal)	GI50 (TK-10 renal)	TGI (TK-10 renal)	GI50 (NCI-H23 lung)	TGI (NCI-H23 lung)	GI50 (HCC-2998 colon)	TGI (HCC-2998 colon)	GI50 (RXF 393 renal)	TGI (RXF 393 renal)	GI50 (A549 NSCLC)	TGI (A549 NSCLC)	GI50 (COLO 205 colon)	TGI (COLO 205 colon)	GI50 (OVCAR-5 ovarian)	TGI (OVCAR-5 ovarian)
C/C(=N/NC(=S)Nc1ccccc1)c1nc2ccc(Cl)cc2[nH]1	0.236 µM	0.85 µM	0.57 µM	1.96 µM	0.0738 µM	0.795 µM	0.539 µM	2.61 µM	0.406 µM	1.52 µM	0.135 µM	0.725 µM	0.165 µM	0.783 µM	0.217 µM	1.41 µM	–	–	–	–
CC1(C)CC(C)(C)c2cc(NC(=S)Nc3ccc([N+](=O)[O-])cc3)ccc2S1	13.6 µM	50.7 µM	24.2 µM	58.3 µM	12.4 µM	39.4 µM	10.3 µM	24.8 µM	12.2 µM	50.2 µM	4.42 µM	24.6 µM	17.9 µM	51.8 µM	12.3 µM	52.7 µM	13 µM	59.4 µM	14.2 µM	49.3 µM
CCCCCCCC(=O)OCC/C=C/C1OC1C1OC(=O)/C=C\C=C\C(=O)N(C(C)=O)C(=O)/C=C(/C)CCC2OC2C1OC(=O)NC(C)=O (stereo not drawn)	9.38 µM	> 25 µM	5.22 µM	15.8 µM	1.82 µM	10.8 µM	6.91 µM	22.2 µM	5.07 µM	12.8 µM	7.35 µM	19.1 µM	4.34 µM	9.45 µM	21.6 µM	> 25 µM	3.27 µM	6.86 µM	4.88 µM	11.5 µM
Cc1cccc(C2NC(=O)c3ccccc3N2)c1 (stereo not drawn)	–	> 100 µM	–	65.1 µM	–	> 100 µM	–	> 100 µM	–	> 54.7 µM	–	> 100 µM	–	> 23.7 µM	–	> 100 µM	–	> 100 µM	–	> 100 µM
O=S(=O)(NC1=NCCN1C(=S)SN1CCn2c1nsc2=S)c1ccc(Cl)cc1	10.8 µM	29.4 µM	14 µM	75.2 µM	2.28 µM	5.92 µM	12.3 µM	25.6 µM	14.4 µM	32.6 µM	11 µM	23.6 µM	3.09 µM	34.4 µM	12.8 µM	37.8 µM	4.36 µM	14.8 µM	17.9 µM	36.5 µM
O=C(Nc1ccc(Cl)cc1C(F)(F)F)C(=O)Nn1c(=S)[nH]c2ccccc2c1=O	–	> 100 µM	–	> 100 µM	–	> 100 µM	–	> 100 µM	–	> 100 µM	–	> 100 µM	–	> 100 µM	–	> 100 µM	–	–	–	> 100 µM
O=C1NC(=NCCc2ccc(Cl)cc2)S/C1=C\c1ccc2ncccc2c1	> 25 µM	> 25 µM	9.77 µM	> 25 µM	> 18.9 µM	> 25 µM	–	–	23.3 µM	> 25 µM	> 25 µM	> 25 µM	11 µM	> 25 µM	15 µM	> 25 µM	15.3 µM	> 25 µM	> 25 µM	> 25 µM
